The values below come from US6436996B1, “Modulation of nitric oxide production” (Duke University, priority 1997, dated 2002).

This assay deals with human monocyte-derived macrophage cells. The assay can be described thus: Nitrite (NO) production in gamma-IFN-primed human monocyte-derived macrophages, Griess reaction. The assay is classed as cell-based. To be noted: for nitrite levels compared to poly I:C treatment alone: Aβ peptide (5 μM) plus APOE (10 nM) plus poly I:C (50 μg/ml); for change in nitrite levels compared to untreated human MDMs: Aβ peptide alone, 1 to 10 μgM. As for the experimental part:
Cell Cultures: Human monocytes from normal, adult volunteers were generously provided by Dr. D. Webb, Center for Biologics Evaluation and Research, NIH, Bethesda, Md. Elutriated monocytes were cultured in Dulbecco's Modified Eagle Medium (DMEM) containing 20% fetal calf serum, 10% human […] (ABI Technologies, Columbia, Md.) and […] human M-Colony Stimulating Factor (M-CSF, Genzyme, Boston, Mass.) at 37° C. in a humidified atmosphere of 5% CO2, 95% air. After 5 to 7 days, morphological changes including spreading and branching of the cells signaled differentiation from monocytes to macrophages and are now commonly called “Monocyte-Derived Macrophages” (MDMs). MDM cells were removed from the flasks by gentle trypsinization, plated at 40,000 cells/well into 96 well microtiter plates and allowed to recover overnight. These MDM cells were then primed by exposure to 1000 U/ml recombinant human gamma interferon (gamma-IFN, Sigma Chemical Co., St. Louis, Mo.) diluted into HL-1 serum free media (Hycor Biomedical Include, Irvine, Calif.). At the end of 12 h priming with gamma-IFN, the priming media was replaced with HL-1 serum free media before experimental treatments as listed in the text. Following experimental treatments, the media was removed and assayed for nitrite levels using the Griess reaction [Colton, C. et al., Mol. Chem. Neuropathol. 28, 15-20 (1996)].
Treatment Factors and Conditions: M-CSF-differentiated and gamma-IFN-primed monocyte-derived macrophage cells were treated by incubation with varying concentrations of Aβ 1-40, its reverse sequence Aβ 40-1 and a non-toxic Aβ fragment, Aβ 1-28 (Bachem, Torrance, Calif.). Aβ peptides were diluted into sterile, double-distilled water and allowed to aggregate at room temperature for 48 h and then stored at −80° C. until use. Human apolipoprotein-E purified protein (Chemicon International, Inc., Temecula, Calif.) was reconstituted in serum free media and added to cells. The double stranded polyribonucleotide, polyinosinic:polycytidylic acid (poly I:C potassium salt, Sigma Chemical Co., St. Louis, Mo.) was also reconstituted into serum free media and used to stimulate nitric oxide (NO) production as described by J. Snell et al., Journal of Leukocyte Biology, 62, 369 (1997).
Measurement of Nitric Oxide (NO): After treatment, conditioned media was removed from cells and the level of nitrite, which is a stable end-product of NO release in biological systems, measured using the Griess reaction [Colton, C., supra]. Briefly, conditioned media were transferred to a new 96 well microtiter plate and an equal volume of Griess reagents were added to each well. After 10 minutes of incubation at room temperature, color development was assessed at 550 nm using a plate reader. Nitrite levels are presented as μM/well which contained 40,000 cells and an average (±SEM) obtained for at least 4 wells assayed per experimental condition for each of at least 4 individual donors. Treatment with the nitric oxide synthase (NOS) inhibitor, N-G-methyl-l-arginine (L-NMMA) was used to determine the level of NOS-mediated NO production. Statistical significance was determined using a one way analysis of variance (ANOVA).
(In general: Griess reagent forms a coloured azo dye with nitrite.)

Entries after “also recorded” stand apart in the source; their conditions may differ.

“boiled APOE: APOE denatured by boiling, control for non-denatured APOE”: the “nitrite levels compared to poly I:C alone” value (boiled (denatured) APOE together with poly I:C, data not shown) is given as “unable to increase NO production”.

With “Aβ 1-40: toxic amyloid-βeta peptide 1-40 fragment of APP (Bachem), aggregated 48 h”, the “nitrite levels compared to untreated control MDMs” value (Aβ 1-40 and APOE in the absence of poly I:C) is recorded as “no significant effect”. Besides, the “nitrite levels compared to poly I:C treatment alone” value (5 days) is listed as “no significant difference”. Besides, the “change in nitrite levels compared to untreated human MDMs” value (5 days, gamma-IFN-primed MDMs) is “not significantly different; also recorded: no significant change”. In addition, the “nitrite levels compared to poly I:C alone” value (Aβ peptide combined with 50 μg/ml poly I:C, 5 days) was “not significantly different”.

“APOE: Human apolipoprotein-E purified protein (Chemicon International), reconstituted in serum free media”: the “overall increase in nitrite levels compared to untreated or APOE-alone treated MDMs” value (10 nM APOE together with 50 μg/ml poly I:C) worked out at 282%. Besides, the “increase in nitrite levels compared to poly I:C alone” value (10 nM APOE together with 50 μg/ml poly I:C, 5 days, p<0.009) came to 68%. Further, for the setting “APOE alone, 1 nM to 100 nM, 5 days, gamma-IFN-primed MDMs”, the “nitrite levels compared to untreated controls” value was “no significant increase”. For the same compound, the “NO released compared to unprimed cells” value (APOE and poly I:C) is approximately 3 fold.

Consider “Aβ 1-28: non-toxic amyloid-βeta peptide fragment 1-28 (Bachem)”, for which the “nitrite levels compared to poly I:C treatment alone” value (5 days) is on record as “same result”. Further, under “5 days, gamma-IFN-primed MDMs”, the “change in nitrite levels compared to untreated human MDMs” value is recorded as “no significant change”.

Regarding “polyinosinic:polycytidylic acid [poly I:C]”, the “increase in nitrite levels compared to untreated controls” value (gamma-IFN-primed MDMs, 50 μg/ml poly I:C alone, 5 days) is reported as 126%.

Take `CNC(=N)NCCC[C@H](N)C(=O)O` [L-NMMA, N-G-methyl-l-arginine]: for the setting “L-NMMA added to APOE plus poly I:C stimulated MDMs, data not shown”, the “effect of NOS inhibitor on nitrite levels” value is “reduced nitrite levels to those seen in the unstimulated controls; also recorded: inhibitable”.
